Assay results: US9404927B2, “Systems and methods for diagnosing and treating cancer” (The Translational Genomics Research Institute, priority 2013, dated 2016)

How the values were obtained:
[1] = test system: HGF-induced Fn14 expression in H2073 cells; assay: Immunoblot of HGF-induced Fn14 expression in serum starved H2073 cells; format: cell-based, human; details: for HGF-induced Fn14 expression: inhibitor 10 μM pre-treated 30 minutes, then HGF (20 ng) three hours
Experimental: FIGS. 5A and 5B illustrate that inhibition of MEK or ERK abrogates HGF-induced expression of Fn14. (FIG. 5A) Serum starved H2073 cells pre-treated with either vehicle, U0126, or LY294002 for 30 minutes were exposed to HGF (20 ng) for three hours. Cells were harvested, total cell lysates were prepared and immunoblotted with antibodies to Fn14. Tubulin was used as a loading control. (FIG. 5B) H1993 cells were treated with either vehicle or U0126 for three hours Immunoblots for phosphorylated ERK1/2 (pERK1/2) and Fn14 were performed with tubulin used as a loading control.
Human NSCLC cell lines H2073 and H1993 (American Type Culture Collection, Manassas, Va.) and mouse cell lines CMT64 and CMT167 (Sigma-Aldrich, St. Louis, Mo.) were maintained in RPMI 1640 (Invitrogen, Carlsbad, Calif.) and DMEM (Invitrogen), respectively, supplemented with 10% heat-inactivated fetal bovine serum (FBS) in a 37° C., 5% CO2 atmosphere. For the HGF stimulation, cells were placed in RPMI 1640 without FBS for 18 hours prior to growth factor exposure.
HGF was purchased from Millipore (Billerica, Mass.). SU11274 and U0126 were purchased from Selleck Chemicals (Houston, Tex.). LY294002 was purchased from Tocris Biosciences (R&D Systems, Minneapolis, Minn.). The final concentrations of inhibitors were SU11274 (2 μM), U0126 (10 μM), and LY294002 (10 μM). Antibodies for immunblot analysis against Fn14, c-Met, and phosphorylated c-Met were purchased from Cell Signaling Technology (Danvers, Mass.), while alpha-tubulin was purchased from Millipore. Immunoblot analysis was performed as previously described (Whitsett T G, et al. (2012) Elevated expression of Fn14 in non-small cell lung cancer correlates with activated EGFR and promotes tumor cell migration and invasion. Am J Pathol 181 1): 111-20).

[2] = test system: Fn14 protein expression in H1993 cells; assay: Immunoblot of Fn14 in H1993 cells treated with inhibitors; format: cell-based, human; details: immunoblot vs vehicle
Experimental: FIGS. 4A-4C illustrate that c-Met amplification enhances Fn14 expression levels in NSCLC cell lines. (FIG. 4A) Total cell lysates were prepared from CMT64 and CMT167 cell lines and immunoblotted with the indicated antibodies. Tubulin was used as a loading control. (FIG. 4B) Total cell lysates were prepared from H2073 (primary adenocarcinoma NSCLC cell line) and H1993 (patient-matched metastatic cell line with known c-Met amplification) and immunoblotted with the indicated antibodies. Tubulin was used as a loading control. (FIG. 4C) H1993 cells were treated with vehicle or SU11274 for 24 hr. Cells were harvested, total cell lysates were prepared and immunoblotted with an antibody against Fn14. Tubulin was used as a loading control. FIGS. 5A and 5B illustrate that inhibition of MEK or ERK abrogates HGF-induced expression of Fn14. […] Cells were harvested, total cell lysates were prepared and immunoblotted with antibodies to Fn14. Tubulin was used as a loading control. […] Human NSCLC cell lines H2073 and H1993 (American Type Culture Collection, Manassas, Va.) and mouse cell lines CMT64 and CMT167 (Sigma-Aldrich, St. Louis, Mo.) were maintained in RPMI 1640 (Invitrogen, Carlsbad, Calif.) and DMEM (Invitrogen), respectively, supplemented with 10% heat-inactivated fetal bovine serum (FBS) in a 37° C., 5% CO2 atmosphere. […]

## O=c1cc(N2CCOCC2)oc2c(-c3ccccc3)cccc12 [LY294002]
[1]
  HGF-induced Fn14 expression: no effect

## Cc1[nH]c(/C=C2\C(=O)Nc3ccc(S(=O)(=O)N(C)c4cccc(Cl)c4)cc32)c(C)c1C(=O)N1CCN(C)CC1 [SU11274]
[2]; SU11274 2 μM, 24 hr
  Fn14 protein expression: inhibition of the Fn14 protein expression

## N#CC(=C(/N)Sc1ccccc1N)/C(C#N)=C(\N)Sc1ccccc1N [U0126]
[1]
  HGF-induced Fn14 expression: completely abrogated
[2]; U0126 10 μM, three hours
  Fn14 protein expression: significantly decreased

## HGF: hepatocyte growth factor, cognate ligand of c-Met, purchased from Millipore
[1]; HGF (20 ng), three hours
  protein expression of Fn14 on exposure to HGF: enhanced
